Columns and labels:
[1] = test system: CCK; experiment: Capacity to antagonize CCK, relative to the compound of Formula I; conditions: based on the activity of the compound of Formula I (1 x)
From the text: The minor components A-D have also been tested for their capacity to antagonize CCK. Based on the activity of the compound of Formula I, the minor components relative activities are: […]

[2] = target: T1, CCK receptor (Rattus norvegicus, UniProt P30551); experiment: CCK receptor binding (inhibition of specific 125I-CCK-33 binding to whole pancreas membranes); set-up: species or system Male Sprague-Dawley rats; conditions: for effect on the 125I-CCK receptor binding assay: added protease inhibitors, 1.2 mM phenylmethane sulfonyl fluoride, 0.5 mM o-phenanthroline in assay buffer; for IC50: rat pancreas, pH 7.7, 37° C., 30 minutes
T1 construct: The whole pancreas was dissected free of fat tissue and was homogenized; from tissue; host or cells: rat whole pancreas membranes
T1 sequence (P30551 1-444): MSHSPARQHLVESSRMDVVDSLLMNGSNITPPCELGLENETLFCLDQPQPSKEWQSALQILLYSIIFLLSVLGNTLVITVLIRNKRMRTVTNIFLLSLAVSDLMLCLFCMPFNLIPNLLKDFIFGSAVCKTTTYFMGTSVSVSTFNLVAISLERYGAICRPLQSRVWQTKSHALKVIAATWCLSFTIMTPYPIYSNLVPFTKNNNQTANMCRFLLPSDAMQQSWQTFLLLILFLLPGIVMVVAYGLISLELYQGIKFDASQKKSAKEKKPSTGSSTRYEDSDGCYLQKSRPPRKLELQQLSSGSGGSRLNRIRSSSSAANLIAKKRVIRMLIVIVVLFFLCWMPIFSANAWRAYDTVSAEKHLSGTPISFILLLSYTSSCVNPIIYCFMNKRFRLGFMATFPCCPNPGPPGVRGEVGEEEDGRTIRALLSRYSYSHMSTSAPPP
Protocol: CCK-33 was radiolabeled with ^125 I-Bolton Hunter reagent (2000 Ci/mmole) as described by Sankara et al. (J. Biol. Chem. 254: 9349-9351, 1979). Receptor binding was performed according to Innis and Snyder (Proc. Natl. Acad. Sci. 77: 6917-6921, 1980) with the minor modification of adding the additional protease inhibitors, phenylmethane sulfonyl fluoride and o-phenanthroline. The latter two compounds have no effect of the ^125 I-CCK receptor binding assay.
Male Sprague-Dawley rats (200-350 g) were sacrificed by decapitation. The whole pancreas was dissected free of fat tissue and was homogenized in 20 volumes of ice-cold 50 mM, Tris HCl (pH 7.7 at 25° C.) with a Brinkmann Polytron PT 10. The homogenates were centrifuged at 48,000 g for 10 min. Pellets were resuspended in Tris Buffer, centrifuged as above and resuspended in 200 volumes of binding assay buffer (50 mM Tris HCl, pH 7.7 at 25° C., 5 mM dithiothreitol, 0.1 mM bacitracin, 1.2 mM phenylmethane sulfonyl fluoride and 0.5 mM o-phenanthroline). For the binding assay, 25 μl of buffer (for total binding) or unlabeled CCK-8 sulfate to give a final concentration of 1 μM (for nonspecific binding) or the compound of Formula I (for determination inhibition of ^125 I-CCK binding) and 25 μl of ^125 I-CCK-33 (30,000-40,000 cpm) were added to 450 μl of the membrane suspensions in microfuge tubes. All assays were run in duplicate or triplicate. The reaction mixtures were incubated at 37° C. for 30 minutes and centrifuged in a Beckman Microfuge (4 minutes) immediately after adding 1 ml of ice-cold incubation buffer. The supernatant was aspirated and discarded, pellets were counted with a Beckman gamma 5000. For Scatchard analysis (Ann. N.Y. Acad. Sci. 51: 660, 1949), ^125 I-CCK-33 was progressively diluted with increasing concentrations of CCK-33.

[3] = target: T2, isolated longitudinal muscle of guinea pig ileum (CCK-8) (Cavia porcellus, UniProt Q63931); experiment: Isolated longitudinal muscle of guinea pig ileum, antagonism of CCK-8 induced contraction; set-up: species or system Male Hartley guinea pigs
T2 construct: Longitudinal muscle strips with attached nerve plexus were prepared; from tissue; host or cells: guinea pig ileum longitudinal muscle with attached nerve plexus
T2 sequence (Q63931 1-430): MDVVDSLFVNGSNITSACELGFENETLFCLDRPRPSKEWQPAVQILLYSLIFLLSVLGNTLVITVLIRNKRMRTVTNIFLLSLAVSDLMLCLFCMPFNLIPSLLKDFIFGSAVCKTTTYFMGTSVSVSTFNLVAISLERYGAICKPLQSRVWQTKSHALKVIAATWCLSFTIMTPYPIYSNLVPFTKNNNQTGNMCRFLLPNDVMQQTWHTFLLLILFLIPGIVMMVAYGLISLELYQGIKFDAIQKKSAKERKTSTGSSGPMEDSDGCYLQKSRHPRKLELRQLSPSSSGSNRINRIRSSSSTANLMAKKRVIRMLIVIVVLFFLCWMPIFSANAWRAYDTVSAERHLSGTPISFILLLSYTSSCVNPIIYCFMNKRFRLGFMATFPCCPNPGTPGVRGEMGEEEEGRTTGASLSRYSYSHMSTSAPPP
Protocol: Longitudinal muscle strips with attached nerve plexus were prepared as described previously (Brit J. Pharmac. 23:; 356-363, 1964; J. Physiol. 194: 13-33, 1969). Male Hartley guinea pigs were decapitated and the ileum was removed (10 cm of the terminal ileum was discarded and the adjacent 20 cm piece was used). A piece (10 cm) of the ileum was stretched on a glass pipette. Using a cotton applicator to stroke tangently away from the mesentery attachment at one end, the longitudinal muscle was separated from the underlying circular muscle. The longitudinal muscle was then tied to a thread and by gently pulling, stripped away from the entire muscle. A piece of approximately 2 cm was suspended in 5 ml organ bath containing Krebs solution and bubbled with 95% O2 and 5% CO2 at 37° C. under 0.5 g tension. CCK-8 was added cumulatively to the baths and EC50 and pA2 values determined as described in the gall bladder preparation (above).

[4] = target: T3, isolated guinea pig gall bladder (CCK-8) (Cavia porcellus, UniProt Q63931); experiment: Isolated guinea pig gall bladder, antagonism of CCK-8 induced contraction; set-up: species or system Male Hartley guinea pigs
T3 construct: The whole gall bladder was dissected free from adjacent tissues; from tissue; host or cells: guinea pig gall bladder
T3 sequence (Q63931 1-430): T2 sequence (Q63931 1-430)
Protocol: Male Hartley guinea pigs (400-600 g) were sacrificed by decapitation. The whole gall bladder was dissected free from adjacent tissues and its content gently squeezed out. The whole bladder was suspended in 5 ml organ bath under 1 g tension. The organ bath contained a Kreb's bicarbonate solution (NaCl 118 mM, KCl 4.75 mM, CaCl 2.54 mM, KH2 PO4 1.19 mM, Mg SO4 1.2 mM, NaHCO3 25 mM and dextrose 11 mM) maintained at 32° C. and bubbled with 95% O2 and 5% CO2. Isometric contractions were recorded using Statham (60 g; 0.12 mm) strain gauges and a Hewlett-Packard (77588) recorder. The tissues were washed every 10 minutes for 1 hr to obtain equilibrium prior to the beginning of the study. CCK-8 was added cumulatively to the baths and EC50 's determined using regression analysis. After washout (every 10 minutes for 1 hr), the compound of Formula I was added at least 5 minutes before the addition of CCK-8 and the EC50 of CCK-8 in the presence of the compound of Formula I similarly determined. The PA2 values and slope were obtained from regression analysis of a Schild plot (Brit. J. Pharmacol. 14: 48-58, 1959) using three concentrations of the compound of Formula I and 3-4 tissues at each concentration.

[5] = Solubility characteristics; assay type: physicochemical

With `CC(C)C[C@H]1C(=O)N2c3ccccc3[C@@](O)(C[C@@H]3NC(=O)c4ccccc4-n4c3nc3ccccc3c4=O)[C@H]2N1O` [Component D] the “relative activity to antagonize CCK” value [1] was 5 x.

For `O=C1NC(Cc2c[nH]c3ccccc23)c2nc3ccccc3c(=O)n2-c2ccccc21` (stereo not drawn) [Component B], the “relative activity to antagonize CCK” value [1] was 1/7.

In the case of `O=S(=O)(F)Cc1ccccc1` [phenylmethane sulfonyl fluoride, reference compound], the “effect on the 125I-CCK receptor binding assay” value [2] is reported as “no effect”.

With `O=C1c2ccccc2-n2c(nc3ccccc3c2=O)[C@@H]2C[C@]3(O)c4ccccc4N[C@@H]3N12` [Component A] the “relative activity to antagonize CCK” value [1] was 1/70.

With `O=C1Nc2ccccc2-c2nc3ccccc3c(=O)n2C1Cc1c[nH]c2ccccc12` (stereo not drawn) [Component C] the “relative activity to antagonize CCK” value [1] was 1/30.

For `c1cnc2c(c1)ccc1cccnc12` [o-phenanthroline, reference compound], the “effect on the 125I-CCK receptor binding assay” value [2] was “no effect”.

In the case of `CC(C)C[C@@H]1N[C@H]2N(C1=O)c1ccccc1[C@@]2(O)C[C@@H]1NC(=O)c2ccccc2-n2c1nc1ccccc1c2=O` [Formula I], the mode of antagonism [3] is reported as “competitive antagonism of CCK”, the “effect on CCK-8 dose-response” value ([3]; 1.3-13 μM) is reported as “concentration dependent parallel shift to the right of the CCK-8 dose-response without change in the maximal contractile response” and the “slope of the Schild plot” value ([3]; CCK-8) is reported as 0.89±0.20. For the same compound, the Kb ([3]; CCK-8, read-out: pA2 value (Schild plot) (converted)) was 398 nM, the Ki ([3]; from Schild plot pA2, read-out: Ki corresponding to pA2 (converted)) was 400 nM and the “effect on CCK-8 dose-response” value ([4]; 1.3-13 μM) was “concentration dependent parallel shift to the right of the CCK-8 dose-response without change in the maximal contractile response”. For the same compound, the mode of antagonism ([4]; CCK-8) was “competitive antagonist of CCK-8”, the “slope of the Schild plot” value ([4]; CCK-8) was 0.95±0.19 and the Kb ([4]; CCK-8, three concentrations, 3-4 tissues each, read-out: pA2 value (Schild plot) (converted)) was 1000 nM. For the same compound, the Ki ([4]; from Schild plot pA2, read-out: Ki value corresponding to pA2 (converted)) was 1000 nM, the “effect on KD (dissociation constant) and Bmax (maximum receptor number) of 125I-CCK-33” value ([2]; Scatchard analysis, 1.3 μM) was “increased the KD (dissociation constant) without affecting the Bmax (maximum receptor number)” and the “mode of inhibition of specific 125I-CCK-33 receptor binding” value ([2]; Scatchard analysis, absence and presence of 1.3 μM) was “competitively inhibited specific ^125 I-CCK-33 receptor binding”. It also gave a Ki ([2]; estimated, 125I-CCK-33 receptor binding, read-out: Ki value (dissociation constant of inhibitor)) of 900 nM, an IC50 [2] of 1310 nM and an IC50 ([2]; printed in parentheses) of 1300 nM. For the same compound, the “relative activity to antagonize CCK” value [1] was 1 x, the “solubility: soluble in” value ([5]; CHCl3, MeOH, EtOH, acetone, DMSO) was “soluble in: CHCl3, MeOH, EtOH, acetone, DMSO” and the “solubility: insoluble in” value ([5]; H2O, hexane, pet. ether) was “insoluble in: H2 O, hexane, pet. ether”.

From patent US4530790A, “Cholecystokinin antagonists” (Merck & Co., Inc., priority 1983, dated 1985)
